Results published in ChEMBL document CHEMBL3784920, “Synthesis and Pharmacological Evaluation of Novel Adenine-Hydrogen Sulfide Slow Release Hybrids Designed as Multitarget Cardioprotective Agents” (J Med Chem, 2016).
The source made the active and inactive calls. No cut-off for these calls is given here.

What was measured:
[1] = Induction of H2S release in potassium phosphate buffer at pH 7.4 after 15 mins by methylene-blue assay; format: physicochemical; settings: pH 7.4, 0.25 h
RLF-6 [2] = test: Induction of H2S release in RLF-6 cells assessed as cGMP accumulation after 5 mins by enzyme immuno assay; format: functional, cell-based; settings: Rattus norvegicus
RLF-6 [3] = test: Induction of H2S release in RLF-6 cells assessed as cGMP accumulation at 250 uM after 5 mins by enzyme immuno assay; format: functional, cell-based; settings: Rattus norvegicus

CC1(C)O[C@@H]2[C@H](O1)[C@@H](COc1ccc(-c3cc(=S)ss3)cc1)O[C@H]2n1cnc2c(N)ncnc21
Activity [1]: Dose-dependent effect

Nc1ncnc2c1ncn2[C@@H]1O[C@H](COc2ccc(-c3cc(=S)ss3)cc2)[C@@H](O)[C@H]1O
Activity [1]: Dose-dependent effect

Nc1ncnc2c1ncn2CCCCOc1ccc(-c2cc(=S)ss2)cc1
Activity [1]: Dose-dependent effect

Nc1ncnc2c1ncn2[C@@H]1O[C@H](CO)[C@@H](O)[C@H]1O
Activity (RLF-6 [2]): inactive

CC1(C)O[C@@H]2[C@H](O1)[C@@H](COc1ccc(C(N)=S)cc1)O[C@H]2n1cnc2c(N)ncnc21
Activity [1]: Dose-dependent effect
Activity (RLF-6 [3]): Active
